Data as given in ChEMBL document CHEMBL1201862, “PubChem BioAssay data set” (2004).
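Exposure lasted 48 hours, with cells grown in 96-well plates and compounds tested at five concentrations. GI50: concentration for 50% inhibition of growth.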 Active and inactive are the calls of the source. Cut-off read from the data, not from the text of the source: active = GI50 up to about 1.1 µM and inactive = higher.

Assays:
Test in all cases: NCI tumour cell line growth inhibition, 48 h
[1] = system: PC-3
[2] = system: DU-145
[3] = system: HCT-15
[4] = system: SR
[5] = system: SNB-75
[6] = system: UACC-257
[7] = system: T47D
[8] = system: SK-MEL-2
[9] = system: NCI/ADR-RES
[10] = system: NCI-H226
[11] = system: KM12
[12] = system: SF-268
[13] = system: MOLT-4
[14] = system: RXF 393
[15] = system: OVCAR-3
[16] = system: RPMI-8226
[17] = system: BT-549
[18] = system: SK-MEL-28
[19] = system: SF-295

Structure (SMILES)	GI50 [1]	GI50 [2]	GI50 [3]	GI50 [4]	GI50 [5]	GI50 [6]	GI50 [7]	GI50 [8]	GI50 [9]	GI50 [10]	GI50 [11]	GI50 [12]	GI50 [13]	GI50 [14]	GI50 [15]	GI50 [16]	GI50 [17]	GI50 [18]	GI50 [19]
CSc1c(C#N)c(O)n(-c2ccc(C)cc2)c(=O)c1C(C)=O	> 100 µM (inactive)	> 100 µM (inactive)	> 100 µM	> 100 µM (inactive)	> 100 µM (inactive)	> 100 µM (inactive)	> 100 µM (inactive)	> 100 µM (inactive)	> 100 µM (inactive)	> 100 µM (inactive)	> 100 µM (inactive)	> 100 µM (inactive)	> 100 µM (inactive)	> 100 µM (inactive)	> 100 µM (inactive)	> 100 µM (inactive)	> 100 µM (inactive)	> 100 µM (inactive)	
Fc1ccc(NC(=S)SCc2ccc3c(c2)OCO3)cc1F	25.5 µM (inactive)	31.6 µM (inactive)	17.2 µM	17.4 µM (inactive)	20.6 µM (inactive)	21.1 µM (inactive)	10.8 µM (inactive)	18.3 µM (inactive)	25.2 µM (inactive)	37.7 µM (inactive)	25.5 µM (inactive)	21.2 µM (inactive)	18.7 µM (inactive)	15.5 µM (inactive)	29.2 µM (inactive)		21.1 µM (inactive)	3.76 µM (inactive)	18.4 µM (inactive)
CCCCCCc1cc2cc(C(=O)Nc3nc(C45CC6CC(CC(C6)C4)C5)cs3)c(=O)oc2cc1O	9.27 µM (inactive)	22.1 µM (inactive)	3.85 µM	5.6 µM (inactive)	7.62 µM (inactive)	24.6 µM (inactive)	5.68 µM (inactive)	12.3 µM (inactive)	17.3 µM (inactive)	19.1 µM (inactive)	11 µM (inactive)	9.57 µM (inactive)	15.1 µM (inactive)	8.24 µM (inactive)	13.1 µM (inactive)	11.2 µM (inactive)	23.8 µM (inactive)	29.3 µM (inactive)	4.06 µM (inactive)
CCCCC[C@H]1CC=CC(=O)O1	7.93 µM (inactive)	5.83 µM (inactive)	4.2 µM	2.03 µM (inactive)		12.1 µM (inactive)	4.55 µM (inactive)	5.43 µM (inactive)	5.92 µM (inactive)	4.13 µM (inactive)	3.18 µM (inactive)	5.38 µM (inactive)	2.34 µM (inactive)	2.33 µM (inactive)	3.5 µM (inactive)	2.86 µM (inactive)	4.06 µM (inactive)	7.26 µM (inactive)	10.4 µM (inactive)
C/C=C(\C)C(=O)OC1C(C)=C2C(C1OC(=O)CCCC)C(C)(OC(C)=O)CC(OC(=O)CCCC)C1(O)C2OC(=O)C1(C)O (centres undefined)	0.491 µM (active)	3.71 µM (inactive)	21 µM	0.951 µM (active)	0.828 µM (active)	9.46 µM (inactive)	6.7 µM (inactive)	0.48 µM (active)	36.9 µM (inactive)	1.19 µM (inactive)	0.776 µM (active)		1.46 µM (inactive)	0.598 µM (active)	0.925 µM (active)	0.267 µM (active)	8.71 µM (inactive)	0.893 µM (active)	0.802 µM (active)
Cc1cc(OP2(=O)NCc3ccncc3O2)ccc1Cl (centres undefined)	> 100 µM (inactive)	> 100 µM (inactive)	> 100 µM	> 100 µM (inactive)	> 100 µM (inactive)	> 100 µM (inactive)	> 100 µM (inactive)	> 100 µM (inactive)	> 100 µM (inactive)	> 100 µM (inactive)	> 100 µM (inactive)		> 100 µM (inactive)	> 100 µM (inactive)	> 100 µM (inactive)	> 100 µM (inactive)	> 100 µM (inactive)	> 100 µM (inactive)	> 100 µM (inactive)
CN(Cc1cnc2nc(N)nc(N)c2n1)c1ccc(C(=O)N[C@@H](CCS(=O)(=O)O)C(=O)O)cc1	0.0459 µM (active)	0.562 µM (active)	0.0514 µM	0.0755 µM (active)		> 100 µM (inactive)	> 100 µM (inactive)	> 100 µM (inactive)	1.18 µM (inactive)	51.5 µM (inactive)	1.64 µM (inactive)	0.151 µM (active)	0.745 µM (active)	0.0611 µM (active)	> 49.5 µM (inactive)		0.404 µM (active)	> 100 µM (inactive)	0.0766 µM (active)
CCC1NC(=O)C1NC(=O)OC (centres undefined)	> 100 µM (inactive)	> 100 µM (inactive)	> 100 µM	> 100 µM (inactive)	> 100 µM (inactive)	> 100 µM (inactive)	> 100 µM (inactive)	> 100 µM (inactive)	> 100 µM (inactive)	> 100 µM (inactive)	> 100 µM (inactive)		> 100 µM (inactive)	> 100 µM (inactive)	> 100 µM (inactive)	> 100 µM (inactive)	> 100 µM (inactive)	> 100 µM (inactive)	> 100 µM (inactive)
